SMILES strings stand for the structures.

For this assay, the system named is Plasmodium falciparum. The assay is described as follows: GSK_TCMDC: Inhibition of Plasmodium falciparum 3D7 in whole erythrocytes, using parasite LDH activity as an index of growth. It is filed as functional, organism-based. The note with it: Plasmodium falciparum, 3D7.
In turn, `COc1ccc2c(N/N=C/c3cccc([N+](=O)[O-])c3)cc(C)nc2c1` displayed an XC50 of 557 nM. The figure for `O=C(Nc1nc(-c2ccccn2)cc2ccccc12)c1cccc(Cl)c1` is 754 nM; for `Clc1ccc2c(Cl)c(CNCCCNc3nc4ccccc4[nH]3)[nH]c2c1` it is 219 nM; for `CCCCN(C(=O)c1ccccc1C)c1nnc(-c2ccccc2C)s1` it is 927 nM. The figure for `O=C(NC1CC1)c1cnc(N2CCN(Cc3ccc(Cl)cc3)CC2)c(Cl)c1` is 847 nM; for `CCc1c(C(=O)NC2CCC(N3CCC(c4ccccc4OC)CC3)CC2)[nH]c2ccc(Br)cc12` (stereo not given) it is 1120 nM; for `CC(C)(C)c1ccc(CN2CCC(CNC(=O)c3cc(-c4cccc(C(F)(F)F)c4)cs3)C2)cc1` (stereo not given) it is 1030 nM. Consider `CCc1ccc(C2=Nn3c(nnc3-c3cccs3)SC2)cc1`, for which the XC50 was determined as 1290 nM.

Consider `N=C(N)c1cccc(OCCCOc2cccc(NC(=O)Nc3ccc([N+](=O)[O-])cc3)c2)c1`, for which the XC50 came out at 862 nM. The value for `CN(C)CCN(C)Cc1ccc(-c2ccc3c(Nc4ccc(Oc5ccccn5)cc4)ccnc3c2)o1` was 424 nM. In the case of `FC(F)(F)c1ccc2c(NCCCNc3ccnc4cc(C(F)(F)F)ccc34)ccnc2c1`, the XC50 was determined as 31.5 nM. As for `OC(c1cc(C(F)(F)F)nc2c(F)cccc12)C1CCCCN1` (stereo not given), the XC50 was 782 nM.

Turning to `O=C(NCCc1ccccc1)N(Cc1cccc(-c2ccc(CNC3CCCC3)cc2)c1)C1CCN(Cc2ccccc2)CC1`, the XC50 is 404 nM. The value for `CCNc1cc(CC)nc(Nc2ccc(C)cc2)n1` was 848 nM.

Regarding `COc1ccc(OCCCON)cc1`, the XC50 stood at 167 nM. The figure for `C[C@@H](N/C(=N\c1ccccc1Cl)Nc1ccc(C#N)cc1O)c1ccc(Br)cc1` is 753 nM; for `Cc1ccc(C(=O)c2oc3ccc4c(C)cc(=O)oc4c3c2C)cc1` it is 1030 nM.

For the molecule `O=C(Nc1ccc2c(c1)CCN2C1CCN(Cc2cc(F)cc(F)c2F)C1)c1ccco1` (stereo not given), the XC50 came to 590 nM.

As to `COCCNCc1ccc(-c2ccc(CNC3CCN(Cc4ccccc4)CC3)cc2)cc1`, the XC50 was found to be 669 nM.

In turn, `Cc1cccc2nc(-c3ccc(-c4ccc(CN5CCC(N)C5)cc4)s3)[nH]c12` (stereo not given) displayed an XC50 of 373 nM. The figure for `CCn1c(SC)nnc1C1CCCN(CC(=O)Nc2nc3ccc(OC)cc3s2)C1` (stereo not given) is 746 nM; for `Cc1ccc(NC(=O)c2nc(N3CCN(c4ccncc4)CC3)ccc2Cl)cc1F` it is 812 nM.

Turning to `COc1cc2nc(NCCc3ccccc3)nc(NCc3nccs3)c2cc1OC`, the XC50 was 532 nM. Take `CC(C)[C@H](NC(=O)c1ccc(O)c(-c2ccc(Cl)c(Cl)c2)c1)C(=O)NC1CCCCCC1`: the XC50 turned out to be 224 nM. The figure for `COc1ccc2nccc([C@H](O)CN3CCC(NCc4cc(C)c5c(c4)OCCO5)CC3)c2n1` is 902 nM. The value for `O=[N+]([O-])c1cccc(CNC2CCN(Cc3ccc(-c4ccccc4)cc3)CC2)c1` was 231 nM; that for `NC(=O)c1ccsc1NC(=O)CNC(c1ccc(F)cc1)c1cccs1` (stereo not given) was 947 nM. Turning to `COc1ccc2nccc([C@@H](O)CN3CCC(NC(=O)c4cc5c(Cl)cc(Cl)cc5[nH]4)CC3)c2c1`, the XC50 amounted to 233 nM. The value for `COc1cc(N(Cc2ccccc2C)S(=O)(=O)Cc2ccccc2[N+](=O)[O-])c(OC)cc1Cl` was 1010 nM; that for `O=C(Cc1ccccc1)NC(c1ccc(Cl)cc1)c1ccc2cccnc2c1O` (stereo not given) was 861 nM; that for `CN(C)CCN(C)Cc1ccc(-c2cccc(NC(=O)c3ccc(Cl)cc3)c2)cc1` was 558 nM. The figure for `Cc1[nH]c(C)c(-c2ccc(OCCOc3ccc(C(F)(F)F)cn3)cc2)c(=O)c1Br` is 138 nM; for `O=C(NCCN1CCCCC1)c1cc2cc(-c3ccccc3)ccc2n1S(=O)(=O)c1ccccc1` it is 1120 nM; for `CC(C)c1ccc(CN2CCC(CNC(=O)c3cc(-c4ccc(N(C)C)cc4)cs3)C2)cc1` (stereo not given) it is 1250 nM. The value for `CC(C)C[C@H](Nc1ccc(C#N)c2ccccc12)C(=O)NC(C)(C)C12CC3CC(CC(C3)C1)C2` was 916 nM; that for `Cc1nc(-c2cccc(Nc3nccc(NCC(O)c4ccccc4C(F)(F)F)n3)c2)cs1` (stereo not given) was 834 nM; that for `COc1ccc(CCNc2nc(NCCc3cnc[nH]3)nc(NCc3cccc4ccccc34)n2)cc1OC` was 537 nM. Turning to `O=C(O)c1cc(OCC(O)COc2ccc(O)c(C(=O)O)c2)ccc1O`, the XC50 came out at 227 nM. The figure for `c1ccc2c(NCCc3c[nH]cn3)c3ccccc3nc2c1` is 1040 nM. With `CC(=O)Nc1ncc(C(=O)Nc2cccc(-c3cccc(-c4nc5cccc(C)c5[nH]4)c3)c2)s1`, the XC50 worked out at 354 nM. With `CNCCNCc1ccc(-c2cccc(-c3nc4cc(C(F)(F)F)ccc4[nH]3)c2)cc1`, the XC50 turned out to be 628 nM.

In turn, `c1ccc(N2CCN(c3cc(-c4cccnc4)nc(-c4ccncc4)n3)CC2)nc1` registered an XC50 of 757 nM.

The molecule `Cc1ccc(Cn2ncc(N3CCNCC3)c(Cl)c2=O)cc1NC(=O)Nc1ccc(-c2ccccc2)cc1` displayed an XC50 of 1120 nM. The figure for `CC(C)(C)OC(=O)N(Cc1cc(-n2nnnc2C(F)(F)F)ccc1O)[C@H]1CCCN(C(=O)OC(C)(C)C)[C@H]1c1ccccc1` is 719 nM; for `COc1ccc(-c2ccc(NC(=O)c3cccc(C#N)c3)cc2)cc1CN(C)C` it is 735 nM; for `COc1ccc(C2CC(c3cccs3)=NN2C(=O)CNc2ccccc2F)cc1OC` (stereo not given) it is 631 nM.

`CC(C)(C)c1ccc(CNC(=O)COc2ccc(-c3nnc(-c4cccc([N+](=O)[O-])c4)o3)cc2[N+](=O)[O-])cc1` yielded an XC50 of 926 nM. `C[C@@H](CC1CCCCC1)OC(=O)N(C)[C@H]1CCN(C#N)C1`: the XC50 came to 219 nM. Turning to `CCCCNC[C@@H](O)[C@H](Cc1ccccc1)NC(=O)c1cc(NCC)cc(N2CCCCS2(=O)=O)c1`, the XC50 worked out at 398 nM.

`Cc1cccc(C(=O)Nc2ccnc(N(C)C3CCN(CC(C)C)CC3)c2)c1` yielded an XC50 of 869 nM. The value for `Fc1cccc(C=NN=c2cc[nH]c3ccc(C(F)(F)F)cc23)c1` was 733 nM. Consider `N#Cc1cccc(C(=O)Nc2ccc(-c3cccc(CN4CCCC4)c3)cc2)c1`, for which the XC50 stood at 712 nM. In the case of `O=C(O)c1ccc(OCOCOc2ccc(C(=O)O)c(O)c2)cc1O`, the XC50 worked out at 190 nM. For `Cc1nc2ccc(Nc3nccc(-c4c(-c5cccc(NC(=O)c6c(F)cccc6F)c5)nn5ccccc45)n3)cc2nc1C`, the XC50 was found to be 1070 nM. Turning to `COc1c(C2CCN(CCCCNC(=O)c3ccc(-c4ccc(Cl)cc4)cn3)CC2)ccc2c1CCCC2`, the XC50 worked out at 912 nM.

`COc1ccccc1-c1cccc2c(NC(=O)Nc3ccc4nccc(N5CCN(C)CC5)c4c3)ccnc12` returned an XC50 of 1000 nM. Take `Cc1ccc(C)c(S(=O)(=O)Nc2ccc(Br)cc2C(=O)Nc2cccc(C(F)(F)F)c2)c1`: the XC50 worked out at 1210 nM. The molecule `NS(=O)(=O)c1ccc(CNC(=O)c2cnc3c(O)cccc3c2Nc2cccc(NC(=O)c3ccc(Cl)c(Cl)c3)c2)cc1` came in with an XC50 of 1720 nM.

`O=C(Nc1cccc(Cl)c1)N[C@H]1CCN(Cc2ccc(OCCCN3CCCCC3)cc2)C1` came in with an XC50 of 729 nM. The figure for `NCC1CCCN1Cc1ccc(-c2ccc(-c3nc4cc(C(F)(F)F)ccc4[nH]3)s2)cc1` (stereo not given) is 794 nM. In turn, `COc1cc(CNCCCCCCNCc2cc(OC)c3ccccc3c2OC)c(OC)c2ccccc12` had an XC50 of 700 nM. The value for `N=C1NC(=O)C(=Cc2cn(-c3ccccc3)nc2-c2cccc(S(=O)(=O)N3CCCC3)c2)S1` was 1140 nM. For the molecule `O=C(Nc1cc(C(F)(F)F)cc(C(F)(F)F)c1)NC(CCCN1CCC2(CC1)OCc1ccccc12)c1ccc(Cl)c(Cl)c1` (stereo not given), the XC50 is 820 nM. The figure for `CCCc1cc(Cc2cnc(N)nc2N)cc(CCC)c1OCCCCC(=O)O` is 195 nM; for `Fc1ccc2[nH]c(-c3ccc(-c4ccc(CN5CCCCC5)cc4)cc3)nc2c1` it is 349 nM.

In turn, `O=C(/C=C/c1ccc(Cl)c(Cl)c1)N1CCC(CN2CCC(c3c[nH]c4cc5c(cc34)OCO5)CC2)CC1` yielded an XC50 of 680 nM. As for `O=c1cc(N2CCNCC2)c(Cl)nn1Cc1ccc(NS(=O)(=O)c2ccc(Oc3ccccc3)cc2)cc1`, the XC50 worked out at 574 nM. `O=C(NC1CCN(CCN2CCC(c3cn(CCO)c4ccccc34)CC2)CC1)c1ccc(-c2ccc(C(F)(F)F)cc2)cc1` registered an XC50 of 740 nM.

Regarding `O=C(Nc1ccc(C(=O)Oc2ccc3ccccc3c2)cc1)N[C@@H](Cc1ccc(O)cc1)C(=O)NC1CCN(Cc2ccc(O)cc2)C1` (stereo not given in full), the XC50 amounted to 1060 nM. The figure for `CCCC(=O)Nc1ccc(OCCCCN(CC(C)(C)C)c2ccc(C#N)c(C(F)(F)F)c2)cc1` is 1350 nM; for `O=C(NC1CCC(CN2CCC(c3c[nH]c4ccccc34)CC2)CC1)c1cc(-c2ccc(F)cc2F)ccc1O` (stereo not given) it is 356 nM. The value for `O=C(/C=C/c1ccc(Cl)c(Cl)c1)NCC[C@@H]1C[C@H]1CCN1CCC(c2c[nH]c3ccccc23)CC1` was 794 nM. `COc1cc(Cc2cnc(N)nc2N)c2c(c1OC)OC(C)C=C2` (stereo not given): the XC50 amounted to 1250 nM.

In turn, `Cc1cnc(NCCc2ccc(F)cc2)nc1N[C@@H](CC(C)C)C(=O)Nc1ccccc1` yielded an XC50 of 970 nM. The figure for `CCn1cc2c3c(cc(C(=O)N[C@@H](Cc4ccccc4)[C@H](O)CNCc4cccc(OC)c4)cc31)N(C)S(=O)(=O)CC2` is 667 nM; for `CN(C)Cc1c(O)ccc2[nH]c(-c3ccc(F)cc3F)nc12` it is 1300 nM; for `CCOc1cc(C(=O)Nc2cccnc2)cc(Br)c1OCCC(C)C` it is 1080 nM. Turning to `Cc1cc(N[C@@H](Cc2ccccc2)C(=O)NC2CCCC2)nc(NCCc2cccs2)n1`, the XC50 was found to be 1400 nM. `c1cc2c3c(cccc3c1)NC(CCCCCCCCC1=Nc3cccc4cccc(c34)N1)=N2` returned an XC50 of 826 nM. The figure for `COc1ccc2nccc([C@@H](O)CN3CCC(NCc4ccc5nnsc5c4)CC3)c2c1` is 714 nM.

The molecule `Cc1ncccc1C(=O)Nc1cccc(-c2cccc(-c3nc4cc(C(F)(F)F)ccc4[nH]3)c2)c1` yielded an XC50 of 602 nM. The figure for `CCCN(Cc1nnc(-c2cccs2)o1)C(=O)C1COc2ccccc2O1` (stereo not given) is 850 nM; for `N#Cc1ccc(-c2ccc(C(=O)NCCCCN3CCC(c4cn(CCCO)c5ccccc45)CC3)cc2)cc1` it is 750 nM. The figure for `Cc1nc(-c2cccc(C(=O)NC3CCC(CCN4CCc5ccc(-c6cccnc6)cc5CC4)CC3)c2)no1` (stereo not given) is 762 nM. The value for `CC1CCN(c2nc(C(=O)Nc3ccc(F)cc3C(F)(F)F)c(C(C)C)s2)CC1` was 229 nM.

Source of the values: ChEMBL document CHEMBL1157539, “Thousands of chemical starting points for antimalarial lead identification” (Nature, 2010).
